In PubChem BioAssay AID248 (DTP/NCI, 2004):
Where “and” joins values, the source holds several entries; their conditions need not be identical. Equal entries are not always repeated. Inconclusive results and toxic doses are left out. Cut-off read from the data, not from the text of the source: active = T/C of 150% or more; inactive = T/C below 125%.

Tested on: L1210 leukemia ip in BDF1 mice, survival T/C
Test: NCI In Vivo Anticancer Drug Screen. Data for tumor model L1210 Leukemia (intraperitoneal) in B6D2F1 (BDF1) mice
Settings: endpoint: mean survival time, higher = longer survival
Procedure, shortened: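 Tumor was transplanted into mice, which were then dosed with test compound or vehicle alone. Survival was recorded for each group, and the treated figure was expressed relative to the control figure.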

[1] = dose: 100.0 mg/kg/injection, schedule: Q04DX003 (ip), vehicle: saline with Tween-80
[2] = dose: 200.0 mg/kg/injection, schedule: Q04DX003 (ip), vehicle: saline with Tween-80
[3] = dose: 100.0 mg/kg/injection, schedule: Q01DX001 (ip), vehicle: saline
[4] = dose: 200.0 mg/kg/injection, schedule: Q01DX001 (ip), vehicle: saline
[5] = dose: 100.0 mg/kg/injection, schedule: Q01DX001 (ip), vehicle: Klucel (hydroxypropylcellulose) (HPC)
[6] = dose: 200.0 mg/kg/injection, schedule: Q01DX001 (ip), vehicle: Klucel (hydroxypropylcellulose) (HPC)
[7] = dose: 400.0 mg/kg/injection, schedule: Q01DX001 (ip), vehicle: Klucel (hydroxypropylcellulose) (HPC)
[8] = dose: 100.0 mg/kg/injection, schedule: Q01DX009 (ip), vehicle: Klucel (hydroxypropylcellulose) (HPC)
[9] = dose: 100.0 mg/kg/injection, schedule: Q04DX003 (ip), vehicle: Klucel (hydroxypropylcellulose) (HPC)
[10] = dose: 200.0 mg/kg/injection, schedule: Q01DX009 (ip), vehicle: Klucel (hydroxypropylcellulose) (HPC)
[11] = dose: 200.0 mg/kg/injection, schedule: Q04DX003 (ip), vehicle: Klucel (hydroxypropylcellulose) (HPC)
[12] = dose: 400.0 mg/kg/injection, schedule: Q01DX009 (ip), vehicle: Klucel (hydroxypropylcellulose) (HPC)
[13] = dose: 400.0 mg/kg/injection, schedule: Q04DX003 (ip), vehicle: Klucel (hydroxypropylcellulose) (HPC)
[14] = dose: 25.0 mg/kg/injection, schedule: Q04DX002 (ip), vehicle: Klucel (hydroxypropylcellulose) (HPC)
[15] = dose: 400.0 mg/kg/injection, schedule: Q01DX001 (ip), vehicle: saline
[16] = dose: 400.0 mg/kg/injection, schedule: Q04DX003 (ip), vehicle: saline with Tween-80
[17] = dose: 100.0 mg/kg/injection, schedule: Q01DX009 (ip), vehicle: saline
[18] = dose: 200.0 mg/kg/injection, schedule: Q01DX009 (ip), vehicle: saline
[19] = dose: 100.0 mg/kg/injection, schedule: Q04DX002 (ip), vehicle: Klucel (hydroxypropylcellulose) (HPC)
[20] = dose: 100.0 mg/kg/injection, schedule: Q01DX001 (ip), vehicle: saline with Tween-80
[21] = dose: 200.0 mg/kg/injection, schedule: Q01DX001 (ip), vehicle: saline with Tween-80
[22] = dose: 400.0 mg/kg/injection, schedule: Q01DX001 (ip), vehicle: saline with Tween-80
[23] = dose: 100.0 mg/kg/injection, schedule: Q04DX003 (ip), vehicle: saline
[24] = dose: 200.0 mg/kg/injection, schedule: Q04DX003 (ip), vehicle: saline
[25] = dose: 400.0 mg/kg/injection, schedule: Q04DX003 (ip), vehicle: saline

Measured: T/C

Nc1cnccc1Nc1ccncc1
inactive: [1] 96 % of control | [2] 96 % of control

CC(/C=N/NC1=NCCN1)=N/NC1=NCCN1
inactive: dose: 15.7 mg/kg/injection, schedule: Q01DX Z (ip), vehicle: carboxymethylcellulose (CMC) 104 % of control | dose: 31.5 mg/kg/injection, schedule: Q01DX Z (ip), vehicle: carboxymethylcellulose (CMC) 101 % of control | dose: 63.0 mg/kg/injection, schedule: Q01DX Z (ip), vehicle: carboxymethylcellulose (CMC) 102 % of control | dose: 126.0 mg/kg/injection, schedule: Q01DX Z (ip), vehicle: carboxymethylcellulose (CMC) 103 % of control | dose: 127.0 mg/kg/injection, schedule: Q01DX Z (ip), vehicle: carboxymethylcellulose (CMC) 106 % of control

Cn1c(=O)c2c(nc(OCC3CCCO3)n2C)n(C)c1=O (centres undefined)
inactive: [3] 106 % of control | [4] 100 % of control

CCOc1ccc(NC(C)=O)cc1CN(CCCl)CCBr
inactive: [5] 97 % of control | [6] 111 % of control | [7] 100 % of control

CCCCCCCCCCCCCCCCCCCC/C=C/C1CC(=O)OC1=O (centres undefined)
inactive: [8] 98 % of control | [9] 95 % of control | [10] 96 % of control | [11] 98 % of control | [12] 96 % of control | [13] 113 % of control

CN(C)C=Nc1cc2c3c(c1)CCCN3CCC2
inactive: dose: 12.5 mg/kg/injection, schedule: Q01DX001 (ip), vehicle: saline 103 % of control | dose: 25.0 mg/kg/injection, schedule: Q01DX001 (ip), vehicle: saline 105 % of control

O=C(CCCC(=O)N/N=C/C1CC=CCC1)N/N=C\C1CC=CCC1 (centres undefined)
inactive: dose: 50.0 mg/kg/injection, schedule: Q01DX001 (ip), vehicle: other 90 % of control | dose: 100.0 mg/kg/injection, schedule: Q01DX001 (ip), vehicle: other 90 % of control | dose: 400.0 mg/kg/injection, schedule: Q01DX001 (ip), vehicle: other 98 % of control

C[CH2][Hg][Cl]
inactive: dose: 12.5 mg/kg/injection, schedule: Q04DX002 (ip), vehicle: Klucel (hydroxypropylcellulose) (HPC) 97 % of control | [14] 94 % of control | [3] 97 % of control

CCN(C(=O)Nc1cccc(C(F)(F)F)c1)c1ccccc1C(F)(F)F
inactive: [9] 98 % of control | [11] 91 % of control | [13] 93 % of control

CCCCCCCCCC[Si](C)(C)C
inactive: [3] 100 % of control | [4] 97 % of control | [15] 100 % of control

Brc1ccccc1C=C1c2ccccc2-c2ccccc21
inactive: [1] 102 % of control | [2] 101 % of control | [16] 96 % of control

NC(=O)NOCC1NC(=O)NC1=O (centres undefined)
inactive: [17] 96 % of control | [18] 102 % of control | dose: 400.0 mg/kg/injection, schedule: Q01DX009 (ip), vehicle: saline 102 % of control

COc1cc(OC)c(NC(=O)C(Cl)(Cl)Cl)cc1Cl
inactive: [19] 98 % of control | dose: 200.0 mg/kg/injection, schedule: Q04DX002 (ip), vehicle: Klucel (hydroxypropylcellulose) (HPC) 95 % of control | dose: 400.0 mg/kg/injection, schedule: Q04DX002 (ip), vehicle: Klucel (hydroxypropylcellulose) (HPC) 95 % of control

CCOC(=O)c1cc(C)n(-c2ccc(C(=O)O)cc2)c1C
inactive: dose: 50.0 mg/kg/injection, schedule: Q01DX009 (ip), vehicle: Klucel (hydroxypropylcellulose) (HPC) 97 % of control | [8] 95 % of control | [9] 98 % of control | [10] 95 % of control | [11] 91 % of control

COc1cc2c3c(c1O)-c1c(ccc(OC)c1OC)CC3N(C)CC2 (centres undefined)
inactive: [20] 103 % of control | [21] 102 % of control | [22] 102 % of control

C=CCC(CC)C(=O)O (centres undefined)
inactive: [17] 104 % of control | [23] 100 % of control | [18] 96 % of control | [24] 97 % of control | [25] 97 % of control

N#CC1C(=O)NC(c2ccccc2)=CC1c1ccccc1 (centres undefined)
inactive: [3] 100 % of control | [4] 94 % of control | [15] 94 % of control

Cc1c(C(=O)/C=C/c2ccccc2)cc([N+](=O)[O-])cc1[N+](=O)[O-]
inactive: dose: 50.0 mg/kg/injection, schedule: Q01DX001 (ip), vehicle: saline 92 % of control | [3] 98 % of control | [4] 100 % of control | [15] 93 % of control

O=C(COc1ccccc1)Nc1ccc[n+](Cc2ccc(S(=O)(=O)F)cc2)c1
inactive: [23] 95 % of control and 118 % of control | [24] 101 % of control and 118 % of control | [25] 95 % of control and 114 % of control

O=C(N/N=C\c1ccc(-c2ccccc2)cc1)N/N=C/c1ccc(-c2ccccc2)cc1
inactive: dose: 100.0 mg/kg/injection, schedule: Q04DX003 (ip), vehicle: carboxymethylcellulose (CMC) 90 % of control | dose: 200.0 mg/kg/injection, schedule: Q04DX003 (ip), vehicle: carboxymethylcellulose (CMC) 87 % of control

N#Cc1ccc(C#N)c2ccccc12
inactive: [1] 96 % of control | [2] 98 % of control | [16] 96 % of control

Clc1ccc(C2=NC3=CC(Cl)C=CC3=CC2C2CO2)cc1 (centres undefined)
inactive: [8] 96 % of control | [9] 94 % of control | [10] 98 % of control | [11] 94 % of control | [13] 98 % of control

CCOC(=O)C(C(=O)OCC)c1cc(NC(=O)c2ccccc2)ccc1NC(=O)c1ccccc1
inactive: [1] 98 % of control | [2] 95 % of control | [16] 95 % of control

CCCCCCCCCCCCCCNC1=C(C)C(=O)C(NCCCCCCCCCCCCCC)=C(C)C1=O
inactive: dose: 100.0 mg/kg/injection, schedule: Q01DX001 (ip), vehicle: carboxymethylcellulose (CMC) 98 % of control | dose: 200.0 mg/kg/injection, schedule: Q01DX001 (ip), vehicle: carboxymethylcellulose (CMC) 93 % of control | dose: 400.0 mg/kg/injection, schedule: Q01DX001 (ip), vehicle: carboxymethylcellulose (CMC) 89 % of control

Cc1cc(NC(=O)c2cccc(S(=O)(=O)F)c2)cc(C)c1OCc1nc(N)nc(N)c1-c1ccc(Cl)c(Cl)c1
inactive: [20] 97 % of control | [21] 88 % of control | [22] 101 % of control

Cc1o[nH]c(=O)c1C
inactive: [1] 103 % of control | [2] 94 % of control | [16] 103 % of control

O=C1OC2C3C=CC(CC3)C2O1 (centres undefined)
inactive: dose: 7.5 mg/kg/injection, schedule: Q04DX002 (ip), vehicle: Klucel (hydroxypropylcellulose) (HPC) 105 % of control | dose: 15.0 mg/kg/injection, schedule: Q01DX001 (ip), vehicle: carboxymethylcellulose (CMC) 101 % of control | dose: 15.0 mg/kg/injection, schedule: Q04DX002 (ip), vehicle: Klucel (hydroxypropylcellulose) (HPC) 99 % of control | dose: 30.0 mg/kg/injection, schedule: Q01DX001 (ip), vehicle: carboxymethylcellulose (CMC) 114 % of control | dose: 30.0 mg/kg/injection, schedule: Q04DX002 (ip), vehicle: Klucel (hydroxypropylcellulose) (HPC) 96 % of control

O=C1N(CCCl)CCN1c1ccccc1
inactive: [5] 93 % of control | [8] 104 % of control | [6] 96 % of control | [10] 106 % of control | [7] 95 % of control | [12] 106 % of control

CNC(=O)CCCOC(=O)c1ccc([N+](=O)[O-])cc1
inactive: [14] 108 % of control | dose: 50.0 mg/kg/injection, schedule: Q04DX002 (ip), vehicle: Klucel (hydroxypropylcellulose) (HPC) 108 % of control | [19] 104 % of control

COc1ccc(C)cc1NC(=O)OCCOc1ccc(Br)cc1
inactive: dose: 50.0 mg/kg/injection, schedule: Q01DX009 (ip), vehicle: saline with Tween-80 90 % of control | dose: 100.0 mg/kg/injection, schedule: Q01DX009 (ip), vehicle: saline with Tween-80 97 % of control | dose: 200.0 mg/kg/injection, schedule: Q01DX009 (ip), vehicle: saline with Tween-80 87 % of control

COc1ccc(N=C(c2ccccc2)c2ccc([N+](=O)[O-])cc2)cc1
inactive: [8] 91 % of control | [9] 93 % of control | [10] 101 % of control | [11] 98 % of control | [12] 98 % of control | [13] 98 % of control
